Where a name gives a salt, the structure may show the parent alone.
target: LsrK (Salmonella typhimurium, UniProt Q8ZKQ6); experiment: biochemical; type: biochemical, S. typhimurium; conditions: not given
Sequence (Q8ZKQ6 whole entry): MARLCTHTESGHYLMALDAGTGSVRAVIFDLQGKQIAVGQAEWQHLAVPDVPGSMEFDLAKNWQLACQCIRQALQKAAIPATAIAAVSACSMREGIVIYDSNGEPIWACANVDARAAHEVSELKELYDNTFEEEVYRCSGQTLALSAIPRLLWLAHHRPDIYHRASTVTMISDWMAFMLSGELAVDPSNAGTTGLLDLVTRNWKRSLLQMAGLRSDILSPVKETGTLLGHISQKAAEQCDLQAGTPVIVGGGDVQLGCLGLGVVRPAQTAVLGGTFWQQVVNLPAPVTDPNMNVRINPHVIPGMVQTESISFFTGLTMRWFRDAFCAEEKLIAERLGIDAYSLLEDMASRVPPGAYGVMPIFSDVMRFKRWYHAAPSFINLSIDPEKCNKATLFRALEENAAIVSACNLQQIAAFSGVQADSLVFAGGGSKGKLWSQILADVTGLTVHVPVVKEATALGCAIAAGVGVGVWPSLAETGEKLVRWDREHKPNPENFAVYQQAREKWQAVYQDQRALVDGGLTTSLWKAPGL

Row | Compound | inhibition at 50 µM [%] | IC50 [µM]
1 | CC(C)=CCc1c2c(c3occ(-c4ccc(O)c(O)c4)c(=O)c3c1O)C=CC(C)(C)O2 [POMIFERIN] | 2 | 
2 | C[n+]1ccccc1/C=N/O [PRALIDOXIME CHLORIDE] | 1 | 
3 | O=C(C1CCCCC1)N1CC(=O)N2CCc3ccccc3C2C1 (stereo not drawn) [PRAZIQUANTEL] | 0 | 
4 | CC(=O)OCC(=O)[C@@]1(O)CC[C@H]2[C@@H]3CCC4=CC(=O)C=C[C@]4(C)[C@H]3[C@@H](O)C[C@@]21C [PREDNISOLONE ACETATE] | 0 | 
5 | CC(=O)[C@H]1CC[C@H]2[C@@H]3CC=C4C[C@@H](OC(=O)CCC(=O)O)CC[C@]4(C)[C@H]3CC[C@]12C [PREGNENOLONE SUCCINATE] | 4 | 
6 | OC(CCN1CCCCC1)(c1ccccc1)c1ccccc1 [PRIDINOL METHANESULFONATE] | 1 | 
7 | COc1cc(NC(C)CCCN)c2ncccc2c1 (stereo not drawn) [PRIMAQUINE DIPHOSPHATE] | 89 | 
8 | COC(=O)[C@]1(C)CC[C@]2(C)CC[C@]3(C)C4=CC=C5C(=CC(=O)C(O)=C5C)[C@]4(C)CC[C@@]3(C)[C@@H]2C1 [PRISTIMERIN] | 7 | 
9 | OC(CCN1CCCC1)(c1ccccc1)C1CCCCC1 (stereo not drawn) [PROCYCLIDINE HYDROCHLORIDE] | 0 | 
10 | CN(C)CCCN1c2ccccc2Sc2ccccc21 [PROMAZINE HYDROCHLORIDE] | 3 | 
11 | CC(C)c1cccc(C(C)C)c1O [PROPOFOL] | 7 | 
12 | C=CC1=C(C)c2cc3[nH]c(cc4nc(cc5[nH]c(cc1n2)c(C)c5CCC(=O)O)C(CCC(=O)O)=C4C)c(C)c3C=C [PROTOPORPHYRIN IX] | 100 | 9
13 | CC1=CCc2c(cc3oc(C)cc(=O)c3c2O)OC1 [PTAEROXYLIN] | 1 | 
14 | COc1ccc(C[C@H](N)C(=O)N[C@H]2[C@@H](O)[C@H](n3cnc4c(N(C)C)ncnc43)O[C@@H]2CO)cc1 [PUROMYCIN HYDROCHLORIDE] | 0 | 
15 | O=C1c2ccccc2C(=O)c2c(O)c(O)cc(O)c21 [PURPURIN] | 45 | 
16 | O=c1c(O)cccc2cc(O)c(O)c(O)c12 [PURPUROGALLIN] | 89 | 
17 | CN1CCCN=C1/C=C/c1cccs1 [PYRANTEL PAMOATE] | 101 | 
18 | Cc1ncc(CSSCc2cnc(C)c(O)c2CO)c(CO)c1O [PYRITINOL] | 1 | 
19 | CC[C@@]1(O)C[C@H](O[C@H]2C[C@H](N(C)C)[C@H](O)[C@H](C)O2)c2c(cc3c(c2O)C(=O)c2c(O)ccc(O)c2C3=O)[C@H]1C(=O)OC [PYRROMYCIN] | 1 | 
20 | O=c1c(O)c(-c2ccc(O)c(O)c2)oc2cc(O)cc(O)c12 [QUERCETIN] | 22 | 
21 | C[C@@H]1O[C@@H](Oc2c(-c3ccc(O)c(O)c3)oc3cc(O)cc(O)c3c2=O)[C@H](O)[C@H](O)[C@H]1O [QUERCITRIN] | 2 | 
22 | CCN(CC)CCCC(C)Nc1c2ccc(Cl)cc2nc2ccc(OC)cc12 (stereo not drawn) [QUINACRINE HYDROCHLORIDE] | 3 | 

Row | Compound | inhibition at 50 µM [%] | IC50 [µM]
23 | O=C(O)[C@]1(O)C[C@@H](O)[C@@H](O)[C@H](O)C1 [QUINIC ACID] | 0 | 
24 | C=C[C@H]1CN2CC[C@H]1C[C@H]2[C@H](OC(=O)OCC)c1ccnc2ccc(OC)cc12 [QUININE ETHYL CARBONATE] | 3 | 
25 | COCCCOc1ccnc(C[S+]([O-])c2nc3ccccc3[nH]2)c1C (stereo not drawn) [RABEPRAZOLE SODIUM] | 0 | 
26 | O=C(c1ccc(OCCN2CCCCC2)cc1)c1c(-c2ccc(O)cc2)sc2cc(O)ccc12 [RALOXIFENE HYDROCHLORIDE] | 0 | 
27 | CNC(=C[N+](=O)[O-])NCCSCc1ccc(CN(C)C)o1 [RANITIDINE] | 1 | 
28 | COC(=O)[C@H]1[C@H]2C[C@@H]3c4[nH]c5cc(OC)ccc5c4CCN3C[C@H]2C[C@@H](OC(=O)c2cc(OC)c(OC)c(OC)c2)[C@@H]1OC [RESERPINE] | 1 | 
29 | CC(=O)Oc1cccc(O)c1 [RESORCINOL MONOACETATE] | 1 | 
30 | COc1ccc(/C=C/c2cc(O)cc(O)c2)cc1 [RESVERATROL 4'-METHYL ETHER] | 2 | 
31 | CC1=C(/C=C/C(C)=C/C=C/C(C)=C/CO)C(C)(C)CCC1 [RETINOL] | 0 | 
32 | CCCCCCCCCCCCCCCC(=O)OC/C=C(C)/C=C/C=C(C)/C=C/C1=C(C)CCCC1(C)C [RETINYL PALMITATE] | 15 | 
33 | C[C@@H]1O[C@@H](O[C@H]2[C@H](Oc3cc(O)c4c(=O)cc(-c5ccc(O)cc5)oc4c3)O[C@H](CO)[C@@H](O)[C@@H]2O)[C@H](O)[C@H](O)[C@H]1O [RHOIFOLIN] | 2 | 
34 | COC1=C(O)C(=O)c2c(cc3oc(C(C)=O)c(O)c3c2O)C1=O [RHO[…]] | 22 | 
35 | NC(=O)c1ncn([C@@H]2O[C@H](CO)[C@@H](O)[C@H]2O)n1 [RIBAVIRIN] | 5 | 
36 | CO[C@H]1/C=C/O[C@@]2(C)Oc3c(C)c(O)c4c(O)c(c(/C=N/N5CCN(C)CC5)c(O)c4c3C2=O)NC(=O)/C(C)=C\C=C\[C@H](C)[C@H](O)[C@@H](C)[C@@H](O)[C@@H](C)[C@H](OC(C)=O)[C@@H]1C [RIFAMPIN] | 18 | 
37 | CO[C@H]1/C=C/O[C@@]2(C)Oc3c(C)c(O)c4c(O)c(c5c(nc6cc(C)ccn65)c4c3C2=O)NC(=O)/C(C)=C\C=C\[C@H](C)[C@H](O)[C@@H](C)[C@@H](O)[C@@H](C)[C@H](OC(C)=O)[C@@H]1C [RIFAXIMIN] | 1 | 
38 | Cc1nc2sccn2c(=O)c1CCN1CCC(=C(c2ccc(F)cc2)c2ccc(F)cc2)CC1 [RITANSERIN] | 3 | 
39 | CN(C)CCc1c[nH]c2ccc(Cn3cncn3)cc12 [RIZATRIPTAN BENZOATE] | 1 | 
40 | COc1ccc(-c2c(O)c3c(OC)c4c(cc3oc2=O)OC(C)(C)C=C4)cc1 [ROBUSTIC ACID] | 111 | 
41 | COc1ccc(C2CNC(=O)C2)cc1OC1CCCC1 (stereo not drawn) [ROLIPRAM] | 1 | 
42 | CN(C)[C@@H]1C(O)=C(C(=O)NCN2CCCC2)C(=O)[C@@]2(O)C(O)=C3C(=O)c4c(O)cccc4[C@@](C)(O)[C@H]3C[C@@H]12 [ROLITETRACYCLINE] | 5 | 
43 | O=C(/C=C/c1ccc(O)c(O)c1)O[C@H](Cc1ccc(O)c(O)c1)C(=O)O [ROSMARINIC ACID] | 2 | 
44 | CC(C)c1nc(N(C)S(C)(=O)=O)nc(-c2ccc(F)cc2)c1/C=C/[C@@H](O)C[C@@H](O)CC(=O)O [ROSUVASTATIN CALCIUM] | 1 | 

same assay, conditions: 50 µM

Row | Compound | Inhibition (%)
45 | C[C@]12C=CC(=O)C=C1CC[C@@H]1[C@@H]2[C@@H](O)C[C@@]2(C)[C@H]1CC[C@]2(O)C(=O)COP(=O)([O-])[O-].[Na+].[Na+] [PREDNISOLONE SODIUM PHOSPHATE] | 0
46 | CNCCCC1c2ccccc2C=Cc2ccccc21.Cl [PROTRYPTYLINE HYDROCHLORIDE] | 1
47 | O=c1cccc2ccc(O)c(O)c2c1O [PYROGALLIN] | 101
48 | C=C(C)CCCC(C)CCOC(C)=O (stereo not drawn) [RHODINYL ACETATE] | 0
49 | Cc1cc2nc3c(=O)[nH]c(=O)nc-3n(C[C@H](O)[C@H](O)[C@H](O)COP(=O)([O-])O)c2cc1C.[Na+] [RIBOFLAVIN 5-PHOSPHATE SODIUM] | 1
50 | O=P([O-])(O)C(O)(Cc1cccnc1)P(=O)(O)O.[Na+] [RISEDRONATE SODIUM HYDRATE] | 2

— paper PMC6627609, “Targeting Quorum Sensing: High-Throughput Screening to Identify Novel LsrK Inhibitors” (International Journal of Molecular Sciences, 2019)
